# Molecular target: hERG (Homo sapiens, UniProt Q12809)
# Assay: Patch clamp assay (hERG tail currents, whole-cell)
# Chain of hERG (Q12809 whole entry): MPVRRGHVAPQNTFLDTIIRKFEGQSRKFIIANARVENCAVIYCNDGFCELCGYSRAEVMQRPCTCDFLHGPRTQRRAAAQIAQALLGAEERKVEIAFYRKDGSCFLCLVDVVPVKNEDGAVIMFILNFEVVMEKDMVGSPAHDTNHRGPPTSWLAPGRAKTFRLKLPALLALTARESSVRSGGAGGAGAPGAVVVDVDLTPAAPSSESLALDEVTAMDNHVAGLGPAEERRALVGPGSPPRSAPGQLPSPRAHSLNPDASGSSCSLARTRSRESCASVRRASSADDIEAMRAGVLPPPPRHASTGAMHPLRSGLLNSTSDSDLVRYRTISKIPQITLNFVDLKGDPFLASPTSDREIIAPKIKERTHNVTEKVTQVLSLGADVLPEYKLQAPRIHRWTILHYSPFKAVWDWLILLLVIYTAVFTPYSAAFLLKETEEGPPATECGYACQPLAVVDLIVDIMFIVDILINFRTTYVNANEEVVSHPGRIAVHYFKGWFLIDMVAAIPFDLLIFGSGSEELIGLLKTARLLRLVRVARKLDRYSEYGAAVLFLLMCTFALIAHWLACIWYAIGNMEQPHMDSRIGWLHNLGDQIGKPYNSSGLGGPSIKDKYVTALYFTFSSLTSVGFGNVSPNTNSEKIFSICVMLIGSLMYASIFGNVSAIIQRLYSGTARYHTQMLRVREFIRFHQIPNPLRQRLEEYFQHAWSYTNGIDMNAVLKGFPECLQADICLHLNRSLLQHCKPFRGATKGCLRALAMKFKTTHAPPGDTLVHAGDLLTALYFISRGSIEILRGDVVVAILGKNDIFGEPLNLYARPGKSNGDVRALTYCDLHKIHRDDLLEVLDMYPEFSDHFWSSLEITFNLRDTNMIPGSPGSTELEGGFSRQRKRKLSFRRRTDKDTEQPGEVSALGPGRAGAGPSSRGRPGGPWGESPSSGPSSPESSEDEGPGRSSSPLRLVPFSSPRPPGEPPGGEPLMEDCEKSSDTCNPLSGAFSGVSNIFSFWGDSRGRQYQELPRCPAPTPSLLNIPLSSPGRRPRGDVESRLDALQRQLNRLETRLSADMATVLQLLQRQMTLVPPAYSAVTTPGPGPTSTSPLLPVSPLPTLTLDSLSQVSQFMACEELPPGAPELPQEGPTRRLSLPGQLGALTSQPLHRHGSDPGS
Compound,hERG % Remaining (10 μM compound),hERG % Remaining (30 μM compound)
"CC(C)N(CC(F)F)C(=O)c1cc(F)ccc1Oc1cncnc1N1CC2(CCN(C[C@@H]3CC[C@@H](NS(=O)(=O)N4CCC4)CO3)CC2)C1 [Example 99, 2-((4-(7-(((2S,5R)-5-(Azetidine-1-sulfonamido)tetrahydro-2H-pyran-2-yl)methyl)-2,7-diazaspiro[3.5]nonan-2-yl)pyrimidin-5-yl)oxy)-N-(2,2-difluoroethyl)-5-fluoro-N-isopropylbenzamide]",+++ (≥66%),++ (233% and ≤66%)
"CC(C)N(CC(F)F)C(=O)c1cc(F)ccc1Oc1cncnc1N1CC2(CCN(C[C@@H]3CC[C@@H](NS(=O)(=O)N(C)C(C)C)CO3)CC2)C1 [Example 101, N-(2,2-Difluoroethyl)-5-fluoro-N-isopropyl-2-((4-(7-(((2S,5R)-5-((N-isopropyl-N-methylsulfamoyl)amino)tetrahydro-2H-pyran-2-yl)methyl)-2,7-diazaspiro[3.5]nonan-2-yl)pyrimidin-5-yl)oxy)benzamide]",–,+ (<33%)
"CNS(=O)(=O)N[C@@H]1CC[C@@H](CN2CCC3(CC2)CN(c2ncncc2Oc2ccc(F)cc2C(=O)N(CC(F)F)C(C)C)C3)OC1 [Example 102, N-(2,2-Difluoroethyl)-5-fluoro-N-isopropyl-2-((4-(7-(((2S,5R)-5-((N-methylsulfamoyl)amino)tetrahydro-2H-pyran-2-yl)methyl)-2,7-diazaspiro[3.5]nonan-2-yl)pyrimidin-5-yl)oxy)benzamide]",–,+++ (≥66%)
"CC(C)N(CC(F)(F)F)C(=O)c1cc(F)ccc1Oc1cncnc1N1CC2(CCN(C[C@@H]3CC[C@@H](NS(=O)(=O)N(C)C)CO3)CC2)C1 [Example 107, 2-((4-(7-(((2S,5R)-5-((N,N-Dimethylsulfamoyl)amino)tetrahydro-2H-pyran-2-yl)methyl)-2,7-diazaspiro[3.5]nonan-2-yl)pyrimidin-5-yl)oxy)-5-fluoro-N-isopropyl-N-(2,2,2-trifluoroethyl)benzamide]",+++ (≥66%),++ (233% and ≤66%)
"CC(C)N(C(=O)c1cc(F)ccc1Oc1cncnc1N1CC2(CCN(C[C@@H]3CC[C@@H](NS(=O)(=O)C4CC4)CO3)CC2)C1)C1CC(F)(F)C1 [Example 111, 2-((4-(7-(((2S,5R)-5-(Cyclopropanesulfonamido)tetrahydro-2H-pyran-2-yl)methyl)-2,7-diazaspiro[3.5]nonan-2-yl)pyrimidin-5-yl)oxy)-N-(3,3-difluorocyclobutyl)-5-fluoro-N-isopropylbenzamide]",++ (233% and ≤66%),+ (<33%)
"CC(C)N(C(=O)c1cc(F)ccc1Oc1cncnc1N1CC2(CCN(C[C@@H]3CC[C@@H](NS(=O)(=O)N(C)C)CO3)CC2)C1)C1CC(F)(F)C1 [Example 113, N-(3,3-Difluorocyclobutyl)-2-((4-(7-(((2S,5R)-5-((N,N-dimethylsulfamoyl)amino)tetrahydro-2H-pyran-2-yl)methyl)-2,7-diazaspiro[3.5]nonan-2-yl)pyrimidin-5-yl)oxy)-5-fluoro-N-isopropylbenzamide]",+++ (≥66%),++ (233% and ≤66%)
"CCN(CC)S(=O)(=O)N[C@@H]1CC[C@@H](CN2CCC3(CC2)CN(c2ncncc2Oc2ccc(F)cc2C(=O)N(C(C)C)C2CC(F)(F)C2)C3)OC1 [Example 114, 2-((4-(7-(((2S,5R)-5-((N,N-Diethylsulfamoyl)amino)tetrahydro-2H-pyran-2-yl)methyl)-2,7-diazaspiro[3.5]nonan-2-yl)pyrimidin-5-yl)oxy)-N-(3,3-difluorocyclobutyl)-5-fluoro-N-isopropylbenzamide]",+ (<33%),+ (<33%)
"CC(C)N(C(=O)c1cc(F)ccc1Oc1cncnc1N1CC2(CCN(C[C@@H]3CC[C@@H](NS(=O)(=O)N4CCC4)CO3)CC2)C1)C1CC(F)(F)C1 [Example 118, 2-((4-(7-(((2S,5R)-5-(Azetidine-1-sulfonamido)tetrahydro-2H-pyran-2-yl)methyl)-2,7-diazaspiro[3.5]nonan-2-yl)pyrimidin-5-yl)oxy)-N-(3,3-difluorocyclobutyl)-5-fluoro-N-isopropylbenzamide]",++ (233% and ≤66%),+ (<33%)
"CC(C)N(C(=O)c1cc(F)ccc1Oc1cncnc1N1CC2(CCN(C[C@@H]3CC[C@@H](NS(=O)(=O)N(C)C(C)C)CO3)CC2)C1)C1CC(F)(F)C1 [Example 119, N-(3,3-Difluorocyclobutyl)-5-fluoro-N-isopropyl-2-((4-(7-(((2S,5R)-5-((N-isopropyl-N-methylsulfamoyl)amino)tetrahydro-2H-pyran-2-yl)methyl)-2,7-diazaspiro[3.5]nonan-2-yl)pyrimidin-5-yl)oxy)benzamide]",–,+ (<33%)
"C[C@@H]1COC[C@@H](C)N1C(=O)c1cc(F)ccc1Oc1cncnc1N1CC2(CCN(C[C@@H]3CC[C@@H](NS(=O)(=O)c4ccccc4)CO3)CC2)C1 [Example 120, N-((3R,6S)-6-((2-(5-(2-((3R,5R)-3,5-Dimethylmorpholine-4-carbonyl)-4-fluorophenoxy)pyrimidin-4-yl)-2,7-diazaspiro[3.5]nonan-7-yl)methyl)tetrahydro-2H-pyran-3-yl)benzenesulfonamide]",+++ (≥66%),++ (233% and ≤66%)
"C[C@@H]1COC[C@@H](C)N1C(=O)c1cc(F)ccc1Oc1cncnc1N1CC2(CCN(C[C@@H]3CC[C@@H](NS(=O)(=O)N4CCC4)CO3)CC2)C1 [Example 121, N-((3R,6S)-6-((2-(5-(2-((3R,5R)-3,5-Dimethylmorpholine-4-carbonyl)-4-fluorophenoxy)pyrimidin-4-yl)-2,7-diazaspiro[3.5]nonan-7-yl)methyl)tetrahydro-2H-pyran-3-yl)azetidine-1-sulfonamide]",–,+++ (≥66%)
"Cc1nc(S(=O)(=O)N[C@@H]2CC[C@@H](CN3CCC4(CC3)CN(c3ncncc3Oc3ccc(F)cc3C(=O)N3[C@H](C)COC[C@H]3C)C4)OC2)cs1 [Example 122, N-((3R,6S)-6-((2-(5-(2-((3R,5R)-3,5-Dimethylmorpholine-4-carbonyl)-4-fluorophenoxy)pyrimidin-4-yl)-2,7-diazaspiro[3.5]nonan-7-yl)methyl)tetrahydro-2H-pyran-3-yl)-2-methylthiazole-4-sulfonamide]",–,+++ (≥66%)
"C[C@@H]1COC[C@@H](C)N1C(=O)c1cc(F)ccc1Oc1cncnc1N1CC2(CCN(C[C@@H]3CC[C@@H](NS(=O)(=O)N(C)C)CO3)CC2)C1 [Example 123, {[(3R,6S)-6-{[2-(5-{2-[(3R,5R)-3,5-Dimethylmorpholine-4-carbonyl]-4-fluorophenoxy}pyrimidin-4-yl)-2,7-diazaspiro[3.5]nonan-7-yl]methyl}oxan-3-yl]sulfamoyl}dimethylamine]",–,+++ (≥66%)
"CCNS(=O)(=O)N[C@@H]1CC[C@@H](CN2CCC3(CC2)CN(c2ncncc2Oc2ccc(F)cc2C(=O)N2[C@H](C)COC[C@H]2C)C3)OC1 [Example 125, {[(3R,6S)-6-{[2-(5-{2-[(3R,5R)-3,5-Dimethylmorpholine-4-carbonyl]-4-fluorophenoxy}pyrimidin-4-yl)-2,7-diazaspiro[3.5]nonan-7-yl]methyl}oxan-3-yl]sulfamoyl}(ethyl)amine]",–,+++ (≥66%)
"C[C@@H]1COC[C@H](C)N1C(=O)c1cc(F)ccc1Oc1cncnc1N1CC2(CCN(C[C@@H]3CC[C@@H](NS(=O)(=O)c4ccccc4)CO3)CC2)C1 [Example 130, N-((3R,6S)-6-((2-(5-(2-((3S,5R)-3,5-Dimethylmorpholine-4-carbonyl)-4-fluorophenoxy)pyrimidin-4-yl)-2,7-diazaspiro[3.5]nonan-7-yl)methyl)tetrahydro-2H-pyran-3-yl)benzenesulfonamide]",+++ (≥66%),++ (233% and ≤66%)
"CC(C)N(C(=O)c1cc(F)ccc1Oc1cncnc1N1CC2(CCN(C[C@@H]3CC[C@@H](NS(=O)(=O)N4CCC4)CO3)CC2)C1)[C@H]1CCOC1 [Example 134, 2-((4-(7-(((2S,5R)-5-(Azetidine-1-sulfonamido)tetrahydro-2H-pyran-2-yl)methyl)-2,7-diazaspiro[3.5]nonan-2-yl)pyrimidin-5-yl)oxy)-5-fluoro-N-isopropyl-N-((S)-tetrahydrofuran-3-yl)benzamide]",–,+++ (≥66%)
"CC(C)N(CCC#N)C(=O)c1cc(F)ccc1Oc1cncnc1N1CC2(CCN(C[C@@H]3CC[C@@H](NS(=O)(=O)c4ccccc4)CO3)CC2)C1 [Example 136, N-(2-Cyanoethyl)-5-fluoro-N-isopropyl-2-((4-(7-(((2S,5R)-5-(phenylsulfonamido)tetrahydro-2H-pyran-2-yl)methyl)-2,7-diazaspiro[3.5]nonan-2-yl)pyrimidin-5-yl)oxy)benzamide]",+++ (≥66%),+ (<33%)
"CC(C)N(C)C(=O)c1cc(F)ccc1Oc1cncnc1N1CC2(CCN(C[C@@H]3CC[C@@H](NS(=O)(=O)N4CCC4)CO3)CC2)C1 [Example 138, 2-((4-(7-(((2S,5R)-5-(Azetidine-1-sulfonamido)tetrahydro-2H-pyran-2-yl)methyl)-2,7-diazaspiro[3.5]nonan-2-yl)pyrimidin-5-yl)oxy)-5-fluoro-N-isopropyl-N-methylbenzamide]",–,+++ (≥66%)
"CCNS(=O)(=O)N[C@@H]1CC[C@@H](CN2CCC3(CC2)CN(c2ncncc2Oc2ccc(F)cc2C(=O)N(CC)C(C)C)C3)OC1 [Example 141, N-Ethyl-2-((4-(7-(((2S,5R)-5-((N-ethylsulfamoyl)amino)tetrahydro-2H-pyran-2-yl)methyl)-2,7-diazaspiro[3.5]nonan-2-yl)pyrimidin-5-yl)oxy)-5-fluoro-N-isopropylbenzamide]",–,+++ (≥66%)
"CCN(C(=O)c1cc(F)ccc1Oc1cncnc1N1CC2(CCN(C[C@@H]3CC[C@@H](NS(=O)(=O)NC4CC4)CO3)CC2)C1)C(C)C [Example 142, 2-((4-(7-(((2S,5R)-5-((N-Cyclopropylsulfamoyl)amino)tetrahydro-2H-pyran-2-yl)methyl)-2,7-diazaspiro[3.5]nonan-2-yl)pyrimidin-5-yl)oxy)-N-ethyl-5-fluoro-N-isopropylbenzamide]",–,++ (233% and ≤66%)
